This note sets out measurements from patent US11034654B2, “2,3-dihydroisoindole-1-carboxamides useful as ROR-gamma modulators” (AstraZeneca AB, priority 2017, dated 2021).

The target in assay [1] is T1, RORγ ligand binding domain (Homo sapiens, UniProt P51449). The assay is described as follows: RORγ radioligand competition binding assay (SPA). The following applies: competition with tritiated 2-(4-(ethylsulfonyl)phenyl)-N-(4-(2-(methoxymethyl)phenyl)thiophen-2-yl)acetamide (25 nM), hRORγ LBD. The essentials: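 SPA competition on E. coli-expressed N-6×HN-Avi-GST-TCS-hRORγ LBD (S258-K518), 4 nM on YOx glutathione beads, in 20 mM Tris, 150 mM NaCl, 10% glycerol, 0.25% CHAPS, 1 mM TCEP. Compound pre-incubation 1 h RT, then 25 nM tritiated tracer for 16 h. IC50 normalized to vehicle/reference controls; Ki = IC50/(1+[L]/Kd), Kd 17 nmol/L.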
For orientation: Loss of bound radioactivity is the signal in a displacement assay; it reports binding, not function.

Assay [2] concerns human TH17 cells. The assay is described as follows: Inhibition of IL-17 release from human TH17 cells. The assay is classed as cell-based. The following applies: 96 h; isolated human TH17 cells cultured 4 days, IL-17A in supernatant by HTRF; read-out: pIC50 IL-17 release (converted). An excerpt: Inhibition of IL-17 Release from Human TH17 Cells
This test is designed to screen compounds for their inhibitory effect on the release of IL-17 from isolated and cultured human TH17 cells.
Peripheral blood mononuclear cells (PBMC) were isolated from heparin treated human whole blood from healthy donors by density gradient centrifugation. TH17 cells (CD4+CXCR3−CCR6+) were enriched using a human TH17 Cell Enrichment Kit (Stemcell Technologies) according to the manufacturer's protocol. The isolated TH17 cells were activated with aCD3aCD28 beads (MACS Miltenyi) and cultured in X-Vivo15 medium (Lonza) supplemented with L-glutamine, β-mercaptoethanol and a cytokine cocktail consisting of; IL-2, IL-23, IL-1β, IL-6, TGF-β. Cells were seeded at 8000 cells/well in a 384-plate (Corning, #3707) in the presence of compounds or DMSO and cultured for 4 days (37° C., 5% CO2). On day 4 supernatants were collected and IL-17A was measured using a Human IL-17 HTRF Assay kit (Cisbio Bioassays) according to the manufacturer's protocol. The IC50 values for the tested compounds was calculated using Genedata Screener® software (Genedata) using the following calculation method; Compound % effect=100*[(X−min)/(max−min)], where X represents the normalized value for the compound based on the Min (DMSO) and Max (compound 3-(1,3-benzodioxol-5-yl)-1-(3,5-dimethylpiperidin-1-yl)-3-(2-hydroxy-4,6-dimethoxyphenyl)propan-1-one at 10 μM, described in J. R. Hu et al. ACS Med. Chem. Lett. 2013, 4, 79-84) inhibition controls. Results
In general terms: Time-resolved FRET reads energy transfer from a long-lived donor to a nearby acceptor.

The target of assay [3] is T1, RORγ ligand binding domain. The assay is described as follows: RORγ co-factor recruitment assay (FRET). The format is biochemical. Set-up: made in house; host or cells: E. coli BL21DE3 Star. As to conditions: inhibition of recruitment of SRC-1 peptide (NCOA1_677-700) to hRORγ LBD, HTRF read-out. Put shortly: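 Inverse-agonist TR-FRET measuring biotinylated SRC-1 peptide (NCOA1 677-700, 160 nM in pre-mix) recruitment to E. coli-expressed biotinylated HN-Avi-MBP-TCS-hRORγ LBD (258-518; 100 nM in pre-mix), with Eu-streptavidin and streptavidin-APC, in MOPS pH 7.4 buffer, 1 h at rt. 665/612 nm ratio normalised to vehicle and reference control; IC50 from curve fit.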

As to `CC(=O)N1Cc2cc(S(C)(=O)=O)ccc2C1C(=O)Nc1ccc(C(N2CCOCC2)(C(F)(F)F)C(F)(F)F)cc1` (stereo not drawn) [Example 23, 2-Acetyl-N-{4-[1,1,1,3,3,3-hexafluoro-2-(morpholin-4-yl)propan-2-yl]phenyl}-5-(methylsulfonyl)-2,3-dihydro-1H-isoindole-1-carboxamide], the results for the IC50 in assay [1], in assay [2] and in assay [3] were 20 nM, 15.8 nM and 39.8 nM, respectively.
Taken in the same sequence, the figures for `CS(=O)(=O)c1ccc2c(c1)CN(C(=O)CO)C2C(=O)Nc1ccc(C(C#N)(C(F)(F)F)C(F)(F)F)cc1` (stereo not drawn) [Example 5, N-[4-(2-Cyano-1,1,1,3,3,3-hexafluoropropan-2-yl)phenyl]-2-(hydroxyacetyl)-5-(methylsulfonyl)-2,3-dihydro-1H-isoindole-1-carboxamide] were 12.6 nM, 10 nM and 50.1 nM.
Taken in the same sequence, the figures for `CC(=O)N1Cc2cc(S(C)(=O)=O)ccc2C1C(=O)Nc1ccc(C(CCF)(C(F)(F)F)C(F)(F)F)cc1` (stereo not drawn) [Example 35, 2-Acetyl-5-(methylsulfonyl)-N-{4-[1,1,1,4-tetrafluoro-2-(trifluoromethyl)butan-2-yl]phenyl}-2,3-dihydro-1H-isoindole-1-carboxamide] were 10 nM, 6.31 nM and 39.8 nM.
Turning to `CC(=O)N1Cc2cc(S(C)(=O)=O)ccc2C1C(=O)Nc1ccc(C(CCO)(C(F)(F)F)C(F)(F)F)cc1` (stereo not drawn) [Example 33, 2-Acetyl-5-(methylsulfonyl)-N-{4-[1,1,1-trifluoro-4-hydroxy-2-(trifluoromethyl)butan-2-yl]phenyl}-2,3-dihydro-1H-isoindole-1-carboxamide], the IC50 in assay [1] was 251 nM; in assay [2] it was 200 nM; in assay [3], 158 nM.
For `CC(=O)N1Cc2cc(S(C)(=O)=O)ccc2C1C(=O)Nc1ccc(C(CC(=O)NC(C)(C)C)(C(F)(F)F)C(F)(F)F)cc1` (stereo not drawn) [Example 43, 2-Acetyl-N-{4-[4-(tert-butylamino)-1,1,1-trifluoro-4-oxo-2-(trifluoromethyl)butan-2-yl]phenyl}-5-(methylsulfonyl)-2,3-dihydro-1H-isoindole-1-carboxamide], the values for the IC50 in assay [1], in assay [2] and in assay [3] were 794 nM, 251 nM and 158 nM, respectively.
